Test: Metabolic stability testing in liver microsomes
Assay type: in vitro ADME
Conditions: mixed-gender human liver microsomes, 1 mg microsomal protein/mL, initial concentration 10 μM, 60 minutes at 37° C.; WO 2006/005484-substance 7 = 100%
Procedure: Subcellular fractions of different tissues can be prepared easily by ultracentrifugation. Most commonly these are prepared from the liver of animals and human donors to gain information about the potential hepatic clearance of compounds (first-pass elimination of drugs). Human or animal (e.g. dog, mouse, rat) subcellular fraction like liver microsomes, or possibly the fraction called S9 have therefore become a very commonly and widely used as an in vitro model to investigate mainly cytochrome P450 dependent phase I (but also phase II) metabolism that takes place in the liver.
In order to reflect the standard proportion of the enzymes in human and animal livers, liver microsomes are usually pooled from a number of […] of the same sex (or mixed-gender). By supplementing the liver microsomes with relevant cofactors and other components it is possible to investigate and distinguish between CYPs, flavin-containing monooxygenase (FMO) and UDP-glucuronosyltransferase (UGT) activities.
Selected compounds of the invention were tested for their stability in mixed-gender human liver microsomes and compared to pertinent prior art compounds.
Under the test conditions applied (1 mg microsomal protein/mL, initial concentration of 10 μM, and incubation for 60 minutes at 37° C.) the following normalized results were obtained.

Row | SMILES | Normalized microsomal stability [%]
1 | CCC(C)[C@H](NC(=O)NCc1ccccc1F)C(=O)N[C@]1(C(=O)N[C@H](C(=O)NNc2ccccc2)C(C)CC)CCc2[nH]c3c(C(F)(F)F)cccc3c2C1 (stereo partly drawn) [compound 244, (R)-3-{(S)-2-[3-(2-Fluoro-benzyl)-ureido]-3-methyl-pentanoylamino}-8-trifluoromethyl-2,3,4,9-tetrahydro-1H-carbazole-3-carboxylic acid [(S)-2-methyl-1-(N′-phenyl-hydrazinocarbonyl)-butyl]-amide] | 1096
2 | CCC(C)[C@H](NC(=O)Cc1ccccc1F)C(=O)N[C@]1(C(=O)N[C@H](C(=S)NCCN2CCOCC2)C(C)CC)CCc2[nH]c3c(C(F)(F)F)cccc3c2C1 (stereo partly drawn) [Compound 54, (R)-3-{(S)-2-[2-(2-Fluoro-phenyl)-acetylamino]-3-methyl-pentanoylamino}-8-trifluoromethyl-2,3,4,9-tetrahydro-1H-carbazole-3-carboxylic acid [(S)-2-methyl-1-(2-morpholin-4-yl-ethylthiocarbamoyl)-butyl]-amide] | 611
3 | CCC(C)[C@H](NC(=O)Cc1ccccc1F)C(=O)N[C@]1(C(=O)N[C@H](C(=O)NCN2CCOCC2)C(C)CC)CCc2[nH]c3c(C(F)(F)F)cccc3c2C1 (stereo partly drawn) [Compound 36] | 774
4 | CCC(C)[C@H](NC(=O)Cc1ccccc1F)C(=O)N[C@]1(C(=O)N[C@H](C(=O)NCCCn2c[n+](C(C)(C)C)nn2)C(C)CC)CCc2[nH]c3c(C(F)(F)F)cccc3c2C1.O=C([O-])C(F)(F)F (stereo partly drawn) [compound 188, 1-tert-butyl-4-(3-{(S)-2-[((R)-3-{(S)-2-[2-(2-fluoro-phenyl)-acetylamino]-3-methyl-pentanoylamino}-8-trifluoromethyl-2,3,4,9-tetrahydro-1H-carbazole-3-carbonyl)-amino]-3-methyl-pentanoylamino}-propyl)-4H-tetrazol-1-ium; Trifluoro-acetate] | 1259
5 | CCC(C)[C@H](NC(=O)Cc1ccccc1F)C(=O)N[C@]1(C(=O)N[C@H](C(=O)NNC(N)=O)C(C)CC)CCc2[nH]c3c(C(F)(F)F)cccc3c2C1 (stereo partly drawn) [compound 164, (R)-3-{(S)-2-[2-(2-Fluoro-phenyl)-acetylamino]-3-methyl-pentanoylamino}-8-trifluoromethyl-2,3,4,9-tetrahydro-1H-carbazole-3-carboxylic acid [(S)-1-(N′-aminocarbonyl-hydrazinocarbonyl)-2-methyl-butyl]-amide] | 1230
6 | CCC(C)[C@H](NC(=O)Cc1ccccc1F)C(=O)N[C@]1(C(=O)N[C@H](C(=O)NNc2ccccc2)C(C)CC)CCc2[nH]c3c(C(F)(F)F)cccc3c2C1 (stereo partly drawn) [compound 144, (R)-3-{(S)-2-[2-(2-Fluoro-phenyl)-acetylamino]-3-methyl-pentanoylamino}-8-trifluoromethyl-2,3,4,9-tetrahydro-1H-carbazole-3-carboxylic acid [(S)-2-methyl-1-(N′-phenyl-hydrazinocarbonyl)-butyl]-amide] | 1352
7 | CC[C@H](C)[C@H](NC(=O)Cc1ccccc1F)C(=O)N[C@]1(C(=O)N[C@H](c2nc(-c3ccccc3)cs2)[C@@H](C)CC)CCc2[nH]c3c(C(F)(F)F)cccc3c2C1 [compound 249, (R)-3-{(2S,3S)-2-[2-(2-Fluoro-phenyl)-acetylamino]-3-methyl-pentanoylamino}-8-trifluoromethyl-2,3,4,9-tetrahydro-1H-carbazole-3-carboxylic acid [(1S,2S)-2-methyl-1-(4-phenyl-thiazol-2-yl)-butyl]-amide] | 1580
8 | CCC(C)[C@H](NC(=O)Cc1ccccc1F)C(=O)N[C@]1(C(=O)N[C@H](C(=S)NCCCCn2cncn2)C(C)CC)CCc2[nH]c3c(C(F)(F)F)cccc3c2C1 (stereo partly drawn) [compound 114, (R)-3-{(S)-2-[2-(2-Fluoro-phenyl)-acetylamino]-3-methyl-pentanoylamino}-8-trifluoromethyl-2,3,4,9-tetrahydro-1H-carbazole-3-carboxylic acid [(S)-2-methyl-1-1(4-[1,2,4]triazol-1-ylbutylthiocarbamoyl)-butyl]-amide] | 537
9 | CCC(C)[C@H](NC(=O)Cc1ccccc1F)C(=O)N[C@]1(C(=O)N[C@H](CNC(=S)NCc2ccncc2)C(C)CC)CCc2[nH]c3c(C(F)(F)F)cccc3c2C1 (stereo partly drawn) [compound 205, (R)-3-{(S)-2-[2-(2-Fluoro-phenyl)-acetylamino]-3-methyl-pentanoylamino}-8-trifluoromethyl-2,3,4,9-tetrahydro-1H-carbazole-3-carboxylic acid [(S)-2-methyl-1-(3-pyridin-4-ylmethyl-thioureidomethyl)-butyl]-amide] | 800
10 | CCC(C)[C@H](NC(=O)NCc1ccc(OC)cc1)C(=O)N[C@]1(C(=O)N[C@H](C(N)=S)C(C)CC)CCc2[nH]c3c(C(F)(F)F)cccc3c2C1 (stereo partly drawn) [compound 239, (R)-3-{(S)-2-[3-(4-Methoxy-benzyl)-ureido]-3-methyl-pentanoylamino}-8-trifluoromethyl-2,3,4,9-tetrahydro-1H-carbazole-3-carboxylic acid ((S)-2-methyl-1-thiocarbamoyl-butyl)-amide] | 307
11 | CC[C@H](C)[C@H](NC(=O)Cc1ccccc1F)C(=O)N[C@]1(C(=O)N[C@H](c2nc(-c3ccc(OC)cc3)cs2)[C@@H](C)CC)CCc2[nH]c3c(C(F)(F)F)cccc3c2C1 [compound 250, (R)-3-{(2S,3S)-2-[2-(2-Fluoro-phenyl)-acetylamino]-3-methyl-pentanoylamino}-8-trifluoromethyl-2,3,4,9-tetrahydro-1H-carbazole-3-carboxylic acid {(1S,2S)-1-[4-(4-methoxy-phenyl)-thiazol-2-yl]-2-methyl-butyl}-ami] | 1491
12 | CCC(C)[C@H](NC(=O)Cc1ccccc1F)C(=O)N[C@]1(C(=O)N[C@H](C(=O)NCc2cncnc2)C(C)CC)CCc2[nH]c3c(C(F)(F)F)cccc3c2C1 (stereo partly drawn) [compound 183] | 1350
13 | CCOC(=O)c1csc([C@@H](NC(=O)[C@@]2(NC(=O)[C@@H](NC(=O)NCc3ccccc3F)[C@@H](C)CC)CCc3[nH]c4c(C(F)(F)F)cccc4c3C2)[C@@H](C)CC)n1 [compound 258, 2-{(1S,2S)-1-[((R)-3-{(2S,3S)-2-[3-(2-Fluoro-benzyl)-ureido]-3-methyl-pentanoylamino}-8-trifluoromethyl-2,3,4,9-tetrahydro-1H-carbazole-3-carbonyl)-amino]-2-methyl-butyl}-thiazole-4-carboxylic acid ethyl ester] | 1215
14 | CCC(C)[C@H](NC(=O)Cc1ccccc1F)C(=O)N[C@]1(C(=O)N[C@H](C(=O)Nc2ccc3ncccc3c2)C(C)CC)CCc2[nH]c3c(C(F)(F)F)cccc3c2C1 (stereo partly drawn) [compound 137, (R)-3-{(S)-2-[2-(2-Fluoro-phenyl)-acetylamino]-3-methyl-pentanoylamino}-8-trifluoromethyl-2,3,4,9-tetrahydro-1H-carbazole-3-carboxylic acid [(S)-2-methyl-1-(quinolin-6-ylcarbamoyl)-butyl]-amide] | 1296
15 | CCOC(=O)c1csc(C(NC(=O)[C@@]2(NC(=O)[C@@H](NC(=O)Cc3ccccc3F)[C@@H](C)CC)CCc3[nH]c4c(C(F)(F)F)cccc4c3C2)[C@@H](C)CC)n1 (stereo in doubt) [compound 251, 2-{(1R,2S)-1-[((R)-3-{(2S,3S)-2-[2-(2-Fluoro-phenyl)-acetylamino]-3-methyl-pentanoylamino}-8-trifluoromethyl-2,3,4,9-tetrahydro-1H-carbazole-3-carbonyl)-amino]-2-methyl-butyl}-thiazole-4-carboxylic acid ethyl ester] | 1033
16 | CCC(C)[C@H](NC(=O)Cc1ccccc1F)C(=O)N[C@]1(C(=O)N[C@H](CNC(=O)NCc2ccncc2)C(C)CC)CCc2[nH]c3c(C(F)(F)F)cccc3c2C1 (stereo partly drawn) [compound 190, (R)-3-{(S)-2-[2-(2-Fluoro-phenyl)-acetylamino]-3-methyl-pentanoylamino}-8-trifluoromethyl-2,3,4,9-tetrahydro-1H-carbazole-3-carboxylic acid [(S)-2-methyl-1-(3-pyridin-4-ylmethyl-ureidomethyl)-butyl]-amide] | 665
17 | CCC(C)[C@H](NC(=O)Cc1ccccc1F)C(=O)N[C@]1(C(=O)N[C@H](C(=O)NNC(=O)c2ccccc2)C(C)CC)CCc2[nH]c3c(C(F)(F)F)cccc3c2C1 (stereo partly drawn) [compound 242, (R)-3-{(S)-2-[2-(2-Fluoro-phenyl)-acetylamino]-3-methyl-pentanoylamino}-8-trifluoromethyl-2,3,4,9-tetrahydro-1H-carbazole-3-carboxylic acid [(S)-1-(N′-benzoyl-hydrazinocarbonyl)-2-methyl-butyl]-amide] | 1322
18 | CCNC(=O)NC[C@@H](NC(=O)[C@@]1(NC(=O)[C@@H](NC(=O)Cc2ccccc2F)C(C)CC)CCc2[nH]c3c(C(F)(F)F)cccc3c2C1)C(C)CC (stereo partly drawn) [compound 167, (R)-3-{(S)-2-[2-(2-Fluoro-phenyl)-acetylamino]-3-methyl-pentanoylamino}-8-trifluoromethyl-2,3,4,9-tetrahydro-1H-carbazole-3-carboxylic acid {(S)-1-[(3-ethyl-ureido)-methyl]-2-methyl-butyl}-amide] | 274
